# Read-outs that look alike come from different tables or passages of the source.
# Columns and labels:
# KPL1 (A) = assay: SRB proliferation assay, KPL1 (amplified); assay type: cell-based; settings: KPL-1, 120 h, 5-day incubation
# Description: (§1) All cell lines were obtained from ATCC except KPL1 which was obtained from Leibniz Institute DSMZ-German Collection of Microorganisms and Cell Cultures, and SMOV2 which was obtained from Dr. Hiroaki Itamochi (Tottori University School of Medicine, Yonago, Japan; see also: ‘Establishment and characterization of human ovarian clear cell adenocarcinoma cell line (SMOV-2), and its cytotoxity by anticancer agents’, Yonamine K at al., Hum Cell., 1999, 12(3), 139-48; and ‘PPM1D Is a Potential Therapeutic Target in Ovarian Clear Cell Carcinoma’, David S. P. Tan et al., Clin Cancer Res, 2009, 15, 2269).
# (§2) Representative compounds were assessed in a sulforhodamine B (SRB) proliferation assay in the cell lines shown in the Tables below, according to the following general procedure:
# (§3) Cells were seeded in a 96 well plate at a number optimized for each cell line as known in the art; for example as described in Viachai et al, Nature Protocols, 2006, 1 1112-1116. Two fold dilutions of the compounds to be tested were made in culture medium so that, when diluted 5×, the final concentration in the wells was from 50 μM to 0.000191 μM (19 concentrations). […] Optical density was measured at wave length of 490 nm using a plate reader and analysis performed to measure the GI50 using GraphPad PRISM.
# SMOV2 (A) = assay: SRB proliferation assay, SMOV2 (PPM1D amplified); assay type: cell-based; settings: Homo sapiens, SMOV2, PP1MD amplified cell line (A)
# Description: as §1, §2
# (§4) Cells were seeded in a 96 well plate at a number optimized for each cell line as known in the art; for example as described in Viachai et al, Nature Protocols, 2006, 1 1112-1116. Two fold dilutions of the compounds to be tested were made in culture medium so that, when diluted 5×, the final concentration in the wells was from 50 μM to 0.000191 μM (19 concentrations). A day after seeding the cells in 96 well plates, 25 μl of the compound diluted in the culture medium was added to 100 μl of the cells and incubated at 37° C. and 5% CO2 for 3 or 5 more days as required. After this time, cells were fixed by adding 10% ice cold TCA (in H2O) to 3% final concentration in the wells and by incubating at 4° C. for at least 2 h. Plates were washed 4 times in H2O and allowed to dry in the air. Added 100 μl of 0.057% SRB solution to the dried plates and incubated at room temperature for at least 30 min. Removed SRB solution from the plates and washed four times with 1% acetic acid. Plates were left overnight to dry in the air followed by addition of 100 μl of 10 mM Tris pH 10.5 to each well of the dried plates and incubation on a shaker for 5 min to solubilize the SRB. Optical density was measured at wave length of 490 nm using a plate reader and analysis performed to measure the GI50 using GraphPad PRISM.
# Cama1 (NA) = assay: SRB proliferation assay, Cama1 (non-amplified); assay type: cell-based; settings: Homo sapiens, CAMA-1, 120 h; 5-day incubation; Cama1, not amplified (NA)
# Description: as §1, §2, §3
# TOV21G (NA) = assay: SRB proliferation assay, TOV21G (non-amplified control); assay type: cell-based; settings: Homo sapiens, 120 h, 5-day incubation, control not amplified (NA)
# Description: as §1, §2, §4
# [1] = tested on: Phospho-p38, Phospho-p53 S15, cleaved PARP in SMOV2 cells; assay: Western blot analysis of biomarker modulation in SMOV2 cells; assay type: cell-based, human; settings: 24 hours treatment, FIG. 1
# Procedure: FIG. 1 provides an image showing the results of a Western Blot (LDS-PAGE gel) for cleaved PARP, Phospho-p53 S15, Phospho-p38, and GAPDG, confirming modulation of the biomarkers expected for PP1 MD-mediated inhibition in SMOV2 cells as described in Example 2.
# Biomarker modulation by representative compounds was assessed by Western blot analysis in SMOV2 cells using the following procedure:
# On day one, 3×10^5 cells were plated per well in a 6 well plate. Next day cells were treated with DMSO control or indicated concentrations of the representative compounds for 24 hours. Treated cells were lysed in complete lysis buffer (50 mM NaCl, 20 mM Tris pH7.5, 1 mM EDTA, 1 mM EGTA, 1% Triton X100, 10 mM NaF, protease Inhibitor tablet and phosphatase inhibitor cocktails) on ice for 10 min. Soluble proteins were separated by centrifugation, and protein concentration was measured using Bradford assay. Samples with equal amount of proteins were prepared and run on LDS-PAGE. Separated proteins were transferred to the nitrocellulose membrane and probed with the Phospho-p38, Phospho-p53 S15, cleaved PARP, γ-H2AX and GAPDH antibodies.
# MDAMB231 (NA) = assay: SRB proliferation assay, MDAMB231 (non-amplified); assay type: cell-based; settings: Homo sapiens, MDA-MB-231, 120 h; 5-day incubation; MDAMB231, not amplified (NA)
# Description: as §1, §2, §3
# HeLa (NA) = assay: SRB proliferation assay, HeLa (non-amplified); assay type: cell-based; settings: Homo sapiens, 120 h, 5-day incubation, not amplified (NA)
# Description: as §1, §2, §3
# MCF7 (A) = assay: SRB proliferation assay, MCF7 (amplified); assay type: cell-based; settings: MCF7a, 120 h, 5-day incubation
# Description: as §1, §2, §3
structure (smiles),measurement,setting,value
"COCCOCc1cc(F)ccc1-c1nc(-c2ccc3[nH]c(=O)[nH]c3c2)cs1 [Compound 32, 5-(2-(4-fluoro-2-((2-methoxyethoxy)methyl)phenyl)thiazol-4-yl)-1H-benzo[d]imidazol-2(3H)-one]",GI50,KPL1 (A),36 nM
same,GI50,"SMOV2 (A); 72 h, 3-day incubation, read-out: GI50 3-day SMOV2 (A) SRB",4.8 nM
same,GI50,"SMOV2 (A); 120 h, 5-day incubation, read-out: GI50 5-day SMOV2 (A) SRB",1.6 nM
same,GI50,Cama1 (NA),3900 nM
same,GI50,TOV21G (NA),> 10000 nM
same,"biomarker modulation (Western blot: cleaved PARP, Phospho-p53 S15, Phospho-p38)",[1],modulation of the biomarkers expected for PP1MD-mediated inhibition
same,GI50,MDAMB231 (NA),> 10000 nM
same,GI50,HeLa (NA),5600 nM
same,GI50,MCF7 (A),4.6 nM

# Reference: patent US9550764B2, “Fused heterocyclic compounds and their use” (The Institute of Cancer Research: Royal Cancer Hospital, priority 2012, dated 2017)
